Test system: V gamma 9+ T-cells (gamma/delta T-cells)
Test: Activation of gamma/delta T-cells: CD25 expression on V gamma 9+ T-cells of peripheral blood lymphocytes, flow cytometry
Assay type: cell-based, human
Details: peripheral blood lymphocytes of healthy donors, 72 hours incubation with IL-2, CD25 activation marker; IPP positive control 10 μM
Procedure: Lymphocytes were obtained from the peripheral blood of healthy donors by Ficoll density gradient centrifugation. For each test, 2×10^5 of the cells so obtained were seeded in a volume of 0.2 ml of RPMI-1640 medium (Life Technologies) that was enriched with 25 mM HEPES, 2 mM L-glutamine, 0.025 mg/ml of gentamicin, 100 U/ml of human interleukin-2 (IL-2) (all from Life Technologies) and 10% human AB serum (Bavarian Red Cross). The test fractions were added in various dilutions, and isopentenyl diphosphate (IPP) from Sigma was used in a final concentration of 10 μM as a positive control. Incubation was effected in the incubator with 5% CO2 at 37° C. After 72 hours the cells were harvested and analysed in a flow cytometer. In so doing, the expression of the CD25 activation marker on the surface of V gamma 9^+ T-cells was measured with the aid of the monoclonal antibodies CD25-PE (B1.49.9), V gamma 9-FITC (lmmu360) and CD3-PC5 (UCHT1) supplied by Beckman-Coulter.
Lymphocytes were obtained from the peripheral blood of healthy donors by Ficoll density gradient centrifugation. […] After 72 hours the cells were harvested and analysed in a flow cytometer. In so doing, the expression of the CD25 activation marker on the surface of V gamma 9^+ T-cells was measured with the aid of the monoclonal antibodies CD25-PE (B1.49.9), V gamma 9-FITC (Immu360) and CD3-PC5 (UCHT1) supplied by Beckman-Coulter.

SMILES	activity relative to IPP (times more active than IPP)
CC(=CCCP(=O)([O-])OP(=O)([O-])[O-])CO.[Na+].[Na+].[Na+] [compound 15]	about 500 times
CC(=CCCP(=O)([O-])CP(=O)([O-])[O-])CO.[Na+].[Na+].[Na+] [compound 19]	about 500 times
